From BindingDB's records for doi:10.1016/0028-3908(95)00017-z (Merz, 1995)
pKi: −log10 of the molar value. “And” between values parts separate entries of the source, which are not always exact repeats. Equal values may be shown once.

Biological target: Glutamate receptor ionotropic, NMDA 1 (Rattus norvegicus, UniProt P35439)

## CN[C@@]1(c2ccccc2Cl)CCCCC1=O [2-(2-Chloro-phenyl)-2-methylamino-cyclohexanone(Ketamine)]
  pKi: 5.92 and 5.60

## N[C@@H](Cc1ccc(Cl)cc1)C(=O)O [CAS_7424-00-2]
  pKi: 7.37 and 6.74
